As usually defined, the EC50 is the midpoint of the concentration-response curve. The term melting point denotes the temperature of the solid-liquid transition.

One data set addresses T1, human MrgprX1 (Homo sapiens, UniProt Q96LB2).
T1 construct: expressed in transfected cells
The data set is described as follows: MrgprX1 positive allosteric modulator (PAM) calcium FLIPR assay in HEK293 cells. Type of data set: cell-based. The settings on record: PAM activity in presence of EC20 concentration of BAM8-22; HEK293 cells stably transfected with human MrgprX1. The protocol:
HEK293 cells stably transfected with human MrgprX1 were plated onto poly-D-lysine-coated, black-walled, 96-well plates at a seeding density of 12,000 cells/well and grown for two days. On the day of the experiment, cells were incubated with Fluo-4 AM 2 μM, pluronic acid 0.04% and Trypan Red 1% in HBSS (pH 7.4, 100 μL) for 1 h at 37° C. For each different passage of cells, a BAM8-22 dose response was first conducted and the BAM8-22 EC20 determined. Test compounds were then dissolved and serially diluted in DMSO, further diluted with Trypan Red (1%)-containing HBSS (50 μL) and added to cells (0.33% DMSO concentration by volume) to first monitor for agonist activity. After 2.5 min, BAM8-22 at 4-fold EC20 (50 μL) was added to cells (0.25% DMSO concentration by volume) and the cells imaged on the FLIPR for an additional 2 minutes to monitor the test compounds for PAM activity. Finally, data were normalized to fluorescence signals obtained from 250 nM of BAM8-22 (maximum) and BAM8-22 at its EC20 concentration (minimum). EC50 of a test compound was defined as the concentration required to provoke a response halfway between the minimum and maximum response in the presence of EC20 concentration of BAM8-22.

Data set [1] is described as follows: Metabolic stability in human liver microsomes. Type of data set: in vitro ADME. As to the method:
[The procedure below names another species; the source lists this species under the same test.] (§1) The metabolic stability was evaluated using mouse liver microsomes. For the cytochrome P450 (CYP)-mediated metabolism, the reaction was carried out with 100 mM potassium phosphate buffer, pH 7.4, in the presence of NADPH regenerating system (1.3 mM NADPH, 3.3 mM glucose 6-phosphate, 3.3 mM MgCl2, 0.4 U/mL glucose-6-phosphate dehydrogenase, 50 μM sodium citrate). Reactions, in triplicate, were initiated by addition of the liver microsomes to the incubation mixture (compound final concentration was 5 μM; 0.5 mg/mL microsomes). After 60 min of incubation, aliquots of the mixture were removed and the reaction quenched by addition of three times the volume of ice-cold acetonitrile spiked with the internal standard. Compound disappearance was monitored over time using a liquid chromatography and tandem mass spectrometry (LC/MS/MS) method.
Background: Microsomes from liver hold many membrane-bound enzymes, among them those of drug oxidation.

Data set [2] in a line: Metabolic stability in mouse liver microsomes. Type of data set: in vitro ADME. The note with it: mouse liver microsomes 0.5 mg/mL, NADPH, compound 5 μM, 60 min. The protocol:
as §1

A value given as a limit tells only on which side of the number the result lay.

T1 sequence (Q96LB2 whole entry): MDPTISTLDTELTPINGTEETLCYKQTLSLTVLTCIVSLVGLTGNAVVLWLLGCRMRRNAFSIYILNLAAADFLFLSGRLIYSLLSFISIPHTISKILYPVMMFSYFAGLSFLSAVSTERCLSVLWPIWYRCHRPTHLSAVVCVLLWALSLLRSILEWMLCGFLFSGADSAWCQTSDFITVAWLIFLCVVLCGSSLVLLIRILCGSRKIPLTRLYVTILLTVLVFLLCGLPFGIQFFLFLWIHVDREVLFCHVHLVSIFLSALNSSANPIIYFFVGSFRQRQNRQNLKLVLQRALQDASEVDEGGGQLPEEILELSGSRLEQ

In the case of `CC(C)(C)c1sc2ncnc(Oc3c(F)cccc3OC(F)(F)F)c2c1-c1ccc(F)c(F)c1` [Compound 7al, 6-tert-butyl-5-(3,4-difluorophenyl)-4-(2-fluoro-6-(trifluoromethoxy)phenoxy)thieno[2,3-d]pyrimidine], the melting point came to 150 °C. The EC50 at human MrgprX1 was found to be 20 nM. Moreover, in data set [1], the “% remaining after 1-h incubation, Human” value is more than 95%. Also, the “% remaining after 1-h incubation, Mouse” value in data set [2] is listed as more than 95%.
`CC(C)(C)c1sc2ncnc(Oc3c(F)cccc3OC(F)(F)F)c2c1-c1ccc(Cl)cc1` [Compound 7ao, 6-tert-butyl-5-(4-chlorophenyl)-4-(2-fluoro-6-(trifluoromethoxy)phenoxy)thieno[2,3-d]pyrimidine]: the EC50 at human MrgprX1 came out at 10 nM. The “% remaining after 1-h incubation, Human” value in data set [1] is on record as more than 95%. Moreover, in data set [2], the “% remaining after 1-h incubation, Mouse” value is reported as more than 95%.
As for `Cc1ccccc1Oc1ncnc2sc(C)c(C)c12` [Compound 7az, 5,6-dimethyl-4-(o-tolyloxy)thieno[2,3-d]pyrimidine], the melting point turned out to be 107 °C. Further, the EC50 on human MrgprX1 was found to be 500 nM. Also, the “% remaining after 1-h incubation, Mouse” value in data set [2] was less than 5%.
Compound `CC(C)(C)c1sc2ncnc(Oc3c(F)cccc3OC(F)(F)F)c2c1-c1ccc(Cl)c(Cl)c1` [Compound 7b, 6-tert-butyl-5-(3,4-dichlorophenyl)-4-(2-fluoro-6-(trifluoromethoxy)phenoxy)thieno[2,3-d]pyrimidine] showed a melting point of 134 to 137 °C. At human MrgprX1, the EC50 turned out to be 50 nM. In data set [1], the “% remaining after 1-h incubation, Human” value was more than 95%. Further, the “% remaining after 1-h incubation, Mouse” value in data set [2] is 74%.
For `Cc1sc2ncnc(Oc3ccccc3F)c2c1C` [Compound 7ba, 4-(2-fluorophenoxy)-5,6-dimethylthieno[2,3-d]pyrimidine] the same measures were 144 °C, 200 nM, less than 5% and less than 5%.
As to `Cc1sc2ncnc(Oc3ccccc3F)c2c1-c1ccccc1` [Compound 7bb, 4-(2-fluorophenoxy)-6-methyl-5-phenylthieno[2,3-d]pyrimidine], the melting point is 158 °C. In addition, the EC50 on human MrgprX1 came to 400 nM. Further, the “% remaining after 1-h incubation, Human” value in data set [1] came out at 12%. In addition, the “% remaining after 1-h incubation, Mouse” value in data set [2] is less than 5%.
Take `CC(C)(C)c1cc2c(Oc3ccccc3F)ncnc2s1` [Compound 7bc, 6-(tert-butyl)-4-(2-fluorophenoxy)thieno[2,3-d]pyrimidine]: the EC50 on human MrgprX1 was 400 nM. The “% remaining after 1-h incubation, Human” value in data set [1] came to 61%. Besides, the “% remaining after 1-h incubation, Mouse” value in data set [2] is recorded as less than 5%.
Take `CC(C)(C)c1sc2ncnc(Oc3ccccc3F)c2c1-c1ccccc1` [Compound 7bd, 6-(tert-butyl)-4-(2-fluorophenoxy)-5-phenylthieno[2,3-d]pyrimidine]: the melting point is 81 to 82 °C. The EC50 at human MrgprX1 came to 300 nM. Further, in data set [1], the “% remaining after 1-h incubation, Human” value is 78%. Also, the “% remaining after 1-h incubation, Mouse” value in data set [2] was less than 5%.
In turn, `CC(C)(C)c1sc2ncnc(Oc3ccccc3)c2c1-c1ccc(Cl)c(Cl)c1` [Compound 7l, 6-tert-butyl-5-(3,4-dichlorophenyl)-4-phenoxythieno[2,3-d]pyrimidine] gave a melting point of 148 °C. In addition, the EC50 at human MrgprX1 is 600 nM.
The compound `CC(C)(C)c1sc2ncnc(Oc3ccccc3F)c2c1-c1ccc(Cl)c(Cl)c1` [Compound 7m, 6-tert-butyl-5-(3,4-dichlorophenyl)-4-(2-fluorophenoxy)thieno[2,3-d]pyrimidine] returned a melting point of 163 °C. For the same compound, the EC50 on human MrgprX1 was determined as 100 nM.
In turn, `CC(C)(C)c1sc2ncnc(Oc3c(F)cccc3F)c2c1-c1ccc(Cl)c(Cl)c1` [Compound 7n, 6-tert-butyl-5-(3,4-dichlorophenyl)-4-(2,6-difluorophenoxy)thieno[2,3-d]pyrimidine] came in with a melting point of 205 °C. For the same compound, the EC50 at human MrgprX1 was 20 nM. Further, in data set [1], the “% remaining after 1-h incubation, Human” value turned out to be 93%. Also, the “% remaining after 1-h incubation, Mouse” value in data set [2] is listed as 36%.
Turning to `CC(C)(C)c1sc2ncnc(Oc3cccc(F)c3)c2c1-c1ccc(Cl)c(Cl)c1` [Compound 7o, 6-tert-butyl-5-(3,4-dichlorophenyl)-4-(3-fluorophenoxy)thieno[2,3-d]pyrimidine], the melting point is 144 °C. At human MrgprX1, the EC50 was more than 100000 nM.
Consider `CC(C)(C)c1sc2ncnc(Oc3ccc(F)cc3)c2c1-c1ccc(Cl)c(Cl)c1` [Compound 7p, 6-tert-butyl-5-(3,4-dichlorophenyl)-4-(4-fluorophenoxy)thieno[2,3-d]pyrimidine], for which the melting point came to 179 °C. Further, the EC50 at human MrgprX1 amounted to 2000 nM.
`COc1ccccc1Oc1ncnc2sc(C(C)(C)C)c(-c3ccc(Cl)c(Cl)c3)c12` [Compound 7q, 6-tert-butyl-5-(3,4-dichlorophenyl)-4-(2-methoxyphenoxy)thieno[2,3-d]pyrimidine]: the melting point was 136 °C. Moreover, the 50% effective concentration (EC50) at human MrgprX1 was found to be 700 nM.
In turn, `CCOc1ccccc1Oc1ncnc2sc(C(C)(C)C)c(-c3ccc(Cl)c(Cl)c3)c12` [Compound 7r, 6-tert-butyl-5-(3,4-dichlorophenyl)-4-(2-ethoxyphenoxy)thieno[2,3-d]pyrimidine] gave a melting point of 119 °C. Besides, the EC50 at human MrgprX1 amounted to 1000 nM.
`CC(C)(C)c1sc2ncnc(Oc3ccccc3OCC(F)(F)F)c2c1-c1ccc(Cl)c(Cl)c1` [Compound 7s, 6-tert-butyl-5-(3,4-dichlorophenyl)-4-(2-(2,2,2-trifluoroethoxy)phenoxy)thieno[2,3-d]pyrimidine] displayed a melting point of 136 °C. The EC50 on human MrgprX1 was found to be 1000 nM.
For `Cc1ccccc1Oc1ncnc2sc(C(C)(C)C)c(-c3ccc(Cl)c(Cl)c3)c12` [Compound 7t, 6-tert-butyl-5-(3,4-dichlorophenyl)-4-(o-tolyloxy)thieno[2,3-d]pyrimidine] the same measures were 151 °C and 400 nM.
On the same counts, the results for `CC(=O)c1ccccc1Oc1ncnc2sc(C(C)(C)C)c(-c3ccc(Cl)c(Cl)c3)c12` [Compound 7u, 1-(2-(6-tert-butyl-5-(3,4-dichlorophenyl)thieno[2,3-d]pyrimidin-4-yloxy)phenyl)ethanone] are 60 °C and 3000 nM.
Consider `CC(C)Oc1ncnc2sc(C(C)(C)C)c(-c3ccc(Cl)c(Cl)c3)c12` [Compound 7w, 6-tert-butyl-5-(3,4-dichlorophenyl)-4-isopropoxythieno[2,3-d]pyrimidine], for which the melting point was determined as 165 °C. Also, the EC50 on human MrgprX1 is more than 10000 nM.
`CC(C)(C)c1sc2ncnc(OC3CC3)c2c1-c1ccc(Cl)c(Cl)c1` [Compound 7x, 6-tert-butyl-4-cyclopropoxy-5-(3,4-dichlorophenyl)thieno[2,3-d]pyrimidine]: the melting point came out at 172 °C. The EC50 at human MrgprX1 was more than 10000 nM.
With `CC(C)(C)c1sc2ncnc(OC3CCC3)c2c1-c1ccc(Cl)c(Cl)c1` [Compound 7y, 6-tert-butyl-4-cyclobutoxy-5-(3,4-dichlorophenyl)thieno[2,3-d]pyrimidine], the melting point is 146 °C. In addition, the EC50 at human MrgprX1 worked out at 7000 nM.
`CC(C)(C)c1sc2ncnc(OC3CCCC3)c2c1-c1ccc(Cl)c(Cl)c1` [Compound 7z, 6-tert-butyl-4-(cyclopentyloxy)-5-(3,4-dichlorophenyl)thieno[2,3-d]pyrimidine] yielded a melting point of 112 °C. Besides, the EC50 at human MrgprX1 came out at 6000 nM.

These data come from patent publication US20240002395A1, “COMPOUNDS AND THEIR USE FOR TREATING NEUROPATHIC PAIN” (The Johns Hopkins University, priority 2020, published 2024).
